The target in one test is T1, human EBP (Homo sapiens, UniProt Q15125).
T1 construct: expressed in transfected cells; host or cells: human embryonic kidney 293 cells
Briefly: hEBP SPA competition binding assay ([3H]-Ifenprodil). On the procedure: Membrane preparation: To examine compound binding affinity to EBP, human EBP was overexpressed in human embryonic kidney 293 cells. Cell pellet was lysed in 10 times weight binding buffer (50 mM Tris, 5 mM MgCl2, 0.1 mM EDTA, lx protease inhibitor cocktail, pH 7.5) on ice by using a dounce homogenizer. The solution was centrifuged at 25,000 g for 50 min at 4° C. The membrane pellet was re-suspended in binding buffer and run through a 25⅝ gauge needle. After checking the concentration by Bradford assay, the whole cell membrane solution was adjusted to 20 mg/mL and stored at −80° C.
This binding solution was centrifuged at 400 g for 5 minutes to collect the bead/membrane mixture. After re-suspending the pellet in binding buffer at the same calculated volume with 0.01% BSA (Sigma A1933), the bead/membrane mixture was added in 384-well low-binding surface plate (PerkinElmer Cat #6057480) at 25 µl/well. Radioligand at different concentrations with and without the non-radio-labeled same ligand 5 uM (for nonspecific and total signal, respectively) was added to bring final volume to 50 µl/well with DMSO concentration at 0.1%. At equilibrium (3 hours after ligand addition), radiometric signal CPM was counted by using a Microbeta2 microplate counter (Perkinelmer).
A pre-incubated bead/membrane mixture was added in compound plate at 0.3 mg beads and […] membrane per well. […] At equilibrium (3 hours after ligand addition), radiometric signal was counted as described above. The percentage inhibition of compound at each testing concentration was calculated by normalizing each condition's CPM readout to full block (5 uM non-radiolabeled ligand) and non-block (DMSO) control conditions. Compound binding inhibition IC50 was determined by nonlinear regression fitting of percentage inhibition plot against compound concentration. Compound Ki was calculated from the equation Ki=IC50/(1+[L]/Kd), which [L] was radioligand concentration used in assay. All tests had N bigger or equal to 2.

Test [1] concerns the target T2, human emopamil binding protein and human 7-dehydrocholesterol reductase (hEBP-DHCR7) (Homo sapiens, UniProt Q15125).
T2 construct: expressed in transfected cells; host or cells: HEK 293 cells, transient transfection with 2 DNA constructs
Briefly: hEBP-DHCR7 radioligand filtration binding assay. Conditions: membranes of HEK293 co-expressing hEBP and DHCR7; [3H] 2-thia-6-azaspiro[3.4]octane radioligand; 8 doses 0.06 to 5000 nM. In a few lines: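 Membranes from HEK293 cells transiently co-expressing human EBP and DHCR7 (10 μg/well) incubated 3 h at 22 °C with tritiated 2-thia-6-azaspiro[3.4]octane dioxide radioligand (25 nM stock addition) and compound at 0.06–5000 nM final. Bound ligand collected on PEI-treated GF/B filters, scintillation-counted. IC50 by Hill fit; reported as Ki.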

Data on 27 compounds can be found in US20240391930A1, “SPIROCYCLIC BICYCLIC MODULATORS OF CHOLESTEROL BIOSYNTHESIS AND THEIR USE FOR PROMOTING REMYELINATION” (GENENTECH, INC., priority 2021, published 2024).

T2 sequence (Q15125 whole entry): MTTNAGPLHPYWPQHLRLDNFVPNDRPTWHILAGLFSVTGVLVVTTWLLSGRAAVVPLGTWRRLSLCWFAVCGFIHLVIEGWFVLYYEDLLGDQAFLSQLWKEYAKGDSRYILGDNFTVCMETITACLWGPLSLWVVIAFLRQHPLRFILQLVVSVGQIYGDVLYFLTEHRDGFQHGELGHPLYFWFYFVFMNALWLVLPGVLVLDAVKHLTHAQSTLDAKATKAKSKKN
T1 sequence (Q15125 whole entry): as above

A word on the Ki: it is the equilibrium dissociation constant of an inhibitor or competing ligand from its target. Read a high Ki as lower affinity. Turning to `CC(C)n1nc(-c2ccnc(C(F)(F)F)n2)cc1[C@H]1[C@@H]2C[C@@H](N3CCC4(CC3)CS(=O)(=O)C4)C[C@@H]21` (single isomer, unassigned) [Compound 49], the Ki on human EBP was determined as 24 nM; in test [1] it was 64.9 nM.

As to `CC(C)n1nc(-c2cccc(C(F)(F)F)n2)cc1[C@H]1[C@@H]2C[C@@H](N3CCC4(CC3)CS(=O)(=O)C4)C[C@@H]21` (single isomer, unassigned) [Compound 47], the Ki at human EBP was 19 nM; in test [1], 175 nM.

With `CC(C)n1nc(-c2ccc(C(F)(F)F)cc2)cc1[C@H]1[C@@H]2C[C@H](N3CCC4(C3)CS(=O)(=O)C4)C[C@@H]21` [Compound 5, 6-((1R,3r,5S,6r)-6-(1-Isopropyl-3-(4-(trifluoromethyl)phenyl)-1H-pyrazol-5-yl)bicyclo[3.1.0]hexan-3-yl)-2-thia-6-azaspiro[3.4]octane 2,2-dioxide], the inhibition constant (Ki) on human EBP was 22 nM; in test [1], 43 nM.

For `CC(C)n1nc(-c2ccnc(C(F)(F)F)c2)cc1[C@H]1[C@@H]2C[C@@H](N3CCC4(C3)CS(=O)(=O)C4)C[C@@H]21` (single isomer, unassigned) [Compound 18], the values for the inhibition constant Ki (on human EBP; in test [1]) were 30 nM and 17 nM, respectively.

Take `CC(C)n1nc(-c2cccc(C(F)(F)F)c2)cc1[C@H]1[C@@H]2C[C@@H](N3CCC4(C3)CS(=O)(=O)C4)C[C@@H]21` (single isomer, unassigned) [Compound 2]: the inhibition constant Ki on human EBP turned out to be 38 nM; in test [1], 5.91 nM.

`CC(C)n1nc(-c2cncc(C(F)(F)F)c2)cc1[C@H]1[C@@H]2C[C@H](N3CCC4(C3)CS(=O)(=O)C4)C[C@@H]21` (single isomer, unassigned) [Compound 4]: the results for the Ki (at human EBP; in test [1]) were 31 nM and 14.5 nM, respectively.

`CC(C)n1nc(-c2cncc(C(F)(F)F)c2)nc1[C@H]1[C@@H]2C[C@H](N3CCC4(C3)CS(=O)(=O)C4)C[C@@H]21` (single isomer, unassigned) [Compound 17]: the inhibition constant (Ki) is 67 nM on human EBP and 116 nM in test [1].

As to `CC(C)n1nc(-c2ccnc(C(F)(F)F)n2)cc1[C@H]1[C@@H]2C[C@H](N3CCC4(C3)CS(=O)(=O)C4)C[C@@H]21` [Compound 15, 6-((1R,3r,5S,6r)-6-(1-Isopropyl-3-(2-(trifluoromethyl)pyrimidin-4-yl)-1H-pyrazol-5-yl)bicyclo[3.1.0]hexan-3-yl)-2-thia-6-azaspiro[3.4]octane 2,2-dioxide], the figures for the inhibition constant Ki (at human EBP; in test [1]) were 19 nM and 20 nM, respectively.

For the compound `CC(C)n1nc(-c2cncc(C(F)(F)F)c2)cc1[C@H]1[C@@H]2C[C@H](N3CC[C@@]4(CCS(=O)(=O)C4)C3)C[C@@H]21` (single isomer, unassigned) [Compound 9*], the figures for the Ki (on human EBP; in test [1]) were 26 nM and 20.1 nM, respectively.

As to `CC(C)n1nc(C(F)(F)F)cc1[C@H]1[C@@H]2C[C@H](N3CCC4(C3)CS(=O)(=O)C4)C[C@@H]21` (single isomer, unassigned) [Compound 23], the Ki stood at 13 nM at human EBP and 12.4 nM in test [1].

In the case of `CCn1nc(-c2cncc(C(F)(F)F)c2)cc1[C@H]1[C@@H]2C[C@@H](N3CCC4(C3)CS(=O)(=O)C4)C[C@@H]21` (single isomer, unassigned) [Compound 24], the Ki on human EBP was found to be 30 nM; in test [1], 19.9 nM.

For the compound `CC(C)n1nc(-c2cccc(C(F)(F)F)n2)cc1[C@H]1[C@@H]2C[C@H](N3CCC4(CC3)CS(=O)(=O)C4)C[C@@H]21` (single isomer, unassigned) [Compound 48], the figures for the Ki (on human EBP; in test [1]) were 15 nM and 12.5 nM, respectively.

Regarding `CC(C)n1nc(-c2cncc(C(F)(F)F)c2)nc1[C@H]1[C@@H]2C[C@@H](N3CCC4(C3)CS(=O)(=O)C4)C[C@@H]21` (single isomer, unassigned) [Compound 16], the inhibition constant (Ki) on human EBP is 20 nM; in test [1], 21 nM.

`CC(C)n1nc(-c2cncc(C(F)(F)F)c2)cc1[C@H]1[C@@H]2C[C@@H](N3CC4(C3)CS(=O)(=O)C4)C[C@@H]21` (single isomer, unassigned) [Compound 98*]: the inhibition constant Ki was found to be 51 nM on human EBP and 54 nM in test [1].

With `CC(C)n1nc(-c2cncc(C(F)(F)F)c2)cc1[C@H]1[C@@H]2C[C@@H](N3CCC4(CC3)CS(=O)(=O)C4)C[C@@H]21` (single isomer, unassigned) [Compound 38], the Ki is 26 nM on human EBP and 41 nM in test [1].

Regarding `CC(C)n1nc(-c2cc(C(F)(F)F)ccn2)cc1[C@H]1[C@@H]2C[C@H](N3CCC4(C3)CS(=O)(=O)C4)C[C@@H]21` (single isomer, unassigned) [Compound 21], the Ki is 43 nM on human EBP and 17.1 nM in test [1].

As for `CC(C)n1nc(-c2ccnc(C(F)(F)F)c2)cc1[C@H]1[C@@H]2C[C@H](N3CCC4(C3)CS(=O)(=O)C4)C[C@@H]21` (single isomer, unassigned) [Compound 19], the Ki at human EBP turned out to be 16 nM; in test [1], 9.6 nM.

Consider `CCn1nc(-c2cncc(C(F)(F)F)c2)cc1[C@H]1[C@@H]2C[C@H](N3CCC4(C3)CS(=O)(=O)C4)C[C@@H]21` (single isomer, unassigned) [Compound 25], for which the figures for the inhibitory constant (Ki) (on human EBP; in test [1]) were 26 nM and 14.6 nM, respectively.

On to `CC(C)n1nc(-c2ccnc(C(F)(F)F)n2)cc1[C@H]1[C@@H]2C[C@@H](N3CCC4(C3)CS(=O)(=O)C4)C[C@@H]21` [Compound 28, 6-((1R,3s,5S,6r)-6-(1-isopropyl-3-(2-(trifluoromethyl)pyrimidin-4-yl)-1H-pyrazol-5-yl)bicyclo[3.1.0]hexan-3-yl)-2-thia-6-azaspiro[3.4]octane 2,2-dioxide], for which the Ki on human EBP came to 22 nM; in test [1], 24.6 nM.

As to `CC(C)n1nc(-c2cccc(C(F)(F)F)n2)cc1[C@H]1[C@@H]2C[C@H](N3CCC4(C3)CS(=O)(=O)C4)C[C@@H]21` (single isomer, unassigned) [Compound 12], the Ki was 17 nM on human EBP and 12 nM in test [1].

In the case of `CC(C)n1nc(-c2cncc(C(F)(F)F)c2)cc1[C@H]1[C@@H]2C[C@H](N3CC4(C3)CS(=O)(=O)C4)C[C@@H]21` (single isomer, unassigned) [Compound 99*], the Ki at human EBP is 58 nM; in test [1], 48 nM.

For `CC(C)n1nc(-c2cncc(C(F)(F)F)c2)cc1[C@H]1[C@@H]2C[C@H](N3CCC4(CC3)CS(=O)(=O)C4)C[C@@H]21` (single isomer, unassigned) [Compound 40], the figures for the Ki (at human EBP; in test [1]) were 26 nM and 18.4 nM, respectively.

`CC(C)n1nc(-c2cnc(C(F)(F)F)nc2)cc1[C@H]1[C@@H]2C[C@H](N3CCC4(C3)CS(=O)(=O)C4)C[C@@H]21` [Compound 6, 6-((1R,3r,5S,6r)-6-(1-Isopropyl-3-(2-(trifluoromethyl)pyrimidin-5-yl)-1H-pyrazol-5-yl)bicyclo[3.1.0]hexan-3-yl)-2-thia-6-azaspiro[3.4]octane 2,2-dioxide]: the Ki amounted to 19 nM on human EBP and 18.1 nM in test [1].

For the compound `CC(C)n1nc(-c2ccnc(C(F)(F)F)n2)cc1[C@H]1[C@@H]2C[C@H](N3CCC4(CC3)CS(=O)(=O)C4)C[C@@H]21` (single isomer, unassigned) [Compound 50], the Ki was 18 nM on human EBP and 49 nM in test [1].

For `CC(C)n1nc(C(F)(F)F)cc1[C@H]1[C@@H]2C[C@@H](N3CCC4(C3)CS(=O)(=O)C4)C[C@@H]21` (single isomer, unassigned) [Compound 22], the inhibition constant (Ki) on human EBP was 30 nM; in test [1], 12.4 nM.

Take `C=C(c1cc([C@H]2[C@@H]3C[C@H](N4CCC5(C4)CS(=O)(=O)C5)C[C@@H]32)n(C(C)C)n1)C(F)(F)F` [Compound 31, 6-((1R,3r,5S,6r)-6-(1-Isopropyl-3-(3,3,3-trifluoroprop-1-en-2-yl)-1H-pyrazol-5-yl)bicyclo[3.1.0]hexan-3-yl)-2-thia-6-azaspiro[3.4]octane 2,2-dioxide]: the results for the Ki (on human EBP; in test [1]) were 37 nM and 19.2 nM, respectively.

On to `CC(C)n1nc(C2(C(F)(F)F)CC2)cc1[C@H]1[C@@H]2C[C@H](N3CCC4(C3)CS(=O)(=O)C4)C[C@@H]21` [Compound 32, 6-((1R,3r,5S,6r)-6-(1-Isopropyl-3-(1-(trifluoromethyl)cyclopropyl)-1H-pyrazol-5-yl)bicyclo[3.1.0]hexan-3-yl)-2-thia-6-azaspiro[3.4]octane 2,2-dioxide], for which the results for the Ki (on human EBP; in test [1]) were 23 nM and 13.5 nM, respectively.
